Columns and labels:
Format in all cases: cell-based
5-HT7R [1] = target: T1, 5-HT7R (Homo sapiens (Human), UniProt P34969); experiment: Tango assay (β-arrestin signaling system); details: HTLA cells transfected with 5-HT7R-TCS-tTA construct
Description: Tango assay was conducted using HTLA cells in order to investigate the activity of the β-arrestin signaling system. Prior to transfection, the culture medium was replaced from DMEM containing 10% FBS, 100 U/mL penicillin, 100 μg/mL streptomycin, 2 μg/mL puromycin and 100 μg/mL hygromycin B to DMEM containing 10% dialyzed FBS, 100 U/mL penicillin and 100 μg/mL streptomycin. 4 hours later, transfection was conducted using 20 μg of a 5-HT7R-TCS-tTA construct (5-HT7R Tango DNA). The transfected cells were prepared on a white, flat, clear-bottom, 384-well plate (Greiner) (15,000 cells/well, 20 μL/well) using DMEM containing 10% dialyzed FBS, 100 U/mL penicillin and 100 μg/mL streptomycin. 6 hours later, after removing the culture medium, the cells were treated with 10 μL of the compound solution. After culturing for 22 hours and removing the culture medium, the cells were treated with 20 μL of a BrightGlo reagent (Promega) diluted in a 1×HBSS, […], pH 7.4 buffer. After measuring luminescence using a Tecan microplate reader (Spark), IC50 value was obtained using the Prism 8.0 program (GraphPad Software).

5-HT7R [2] = target: T1, 5-HT7R; experiment: cAMP assay (luminescence-based, GloSensor); details: HEK293 cells transfected with human 5-HT7R and GloSensor-22F
Description: For luminescence-based cAMP assay, HEK293 cells were cultured on a 150-mm dish. Prior to transfection, the culture medium was replaced from DMEM containing 10% FBS, 100 U/mL penicillin and 100 μg/mL streptomycin to DMEM containing 10% dialyzed FBS, 100 U/mL penicillin and 100 μg/mL streptomycin. 4 hours later, transfection was conducted using 10 μg of a human 5-HT7R plasmid and 10 μg of a GloSensor-22F plasmid (Promega). The transfected cells were prepared on a white, flat, clear-bottom, 384-well plate (Greiner) (15,000 cells/well, 20 μL/well). 6 hours later, after removing the culture medium, the cells were treated with 20 μL of a 3% Glosensor cAMP reagent containing luciferin in a 1×HBSS, […], pH 7.4 buffer. In addition, the compound of each of the examples was prepared at different concentrations in an assay buffer containing 0.1% bovine serum albumin. 30 minutes later, 10 μL of the compound solution was treated to the cells. After measuring luminescence using a Tecan microplate reader (Spark), IC50 value was obtained using the Prism 8.0 program (GraphPad Software).

5-HT7R [3] = target: T1, 5-HT7R; experiment: Schild plot for Tango assay; details: compounds at 5 μM, 10 μM and 30 μM with serotonin, read-out: pA2 (converted)
Description: Schild plots were constructed for the Tango assay in order to investigate the effect of the compounds on the activity of the β-arrestin signaling pathway. After culturing cells and replacing the culture medium as described in b) of Test Example 1, the cells were transfected and prepared on a plate. 6 hours later, the cells were treated with 10 μL of the solution of serotonin or the compounds at final concentrations of 5 μM, 10 μM and 30 μM. […] In addition, the pA2 value was obtained using the Excel software. The Schild plots and pA2 values of compound 23 and compound 30 according to the present disclosure are summarized in FIGS. 1A-1B, FIG. 2 and Table 8.

T1 sequence (P34969 whole entry): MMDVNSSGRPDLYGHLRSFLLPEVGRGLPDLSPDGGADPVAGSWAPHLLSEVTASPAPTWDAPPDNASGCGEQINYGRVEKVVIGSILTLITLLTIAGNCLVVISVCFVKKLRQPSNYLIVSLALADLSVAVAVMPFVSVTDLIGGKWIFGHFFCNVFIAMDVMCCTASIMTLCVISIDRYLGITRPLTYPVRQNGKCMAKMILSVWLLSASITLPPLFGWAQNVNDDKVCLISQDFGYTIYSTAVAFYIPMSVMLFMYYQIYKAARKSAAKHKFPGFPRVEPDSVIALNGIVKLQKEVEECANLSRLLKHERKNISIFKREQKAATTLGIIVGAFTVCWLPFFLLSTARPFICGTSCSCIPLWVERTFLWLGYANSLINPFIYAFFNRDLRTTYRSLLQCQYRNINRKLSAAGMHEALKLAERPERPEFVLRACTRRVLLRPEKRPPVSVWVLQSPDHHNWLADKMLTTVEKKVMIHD

| inhibition at 10 µM (5-HT7R [1]) [%] | inhibition at 10 µM (5-HT7R [2]) [%] | SMILES | IC50 (5-HT7R [1]) [µM] | IC50 (5-HT7R [2]) [µM] | Kb (5-HT7R [3]) [µM] |
| --- | --- | --- | --- | --- | --- |
| 44.8 | 52.4 | Clc1cccc(-c2cc(C3=NCCN3)ccc2Cl)c1 [Compound 36, 2-(3′,6-dichloro-[1,1′-biphenyl]-3-yl)-4,5-dihydro-1H-imidazole] | 10 | – | – |
| 39.6 | 43.3 | Clc1ccc(-c2cc(C3=NCCN3)ccc2Cl)cc1 [Compound 37, 2-(4′,6-dichloro-[1,1′-biphenyl]-3-yl)-4,5-dihydro-1H-imidazole] | – | – | – |
| 31.7 | 51.4 | Cc1ccccc1-c1cc(C2=NCCN2)ccc1Cl [Compound 38, 2-(6-chloro-2′-methyl-[1,1′-biphenyl]-3-yl)-4,5-dihydro-1H-imidazole] | – | – | – |
| 27 | 48.1 | Cc1cccc(-c2cc(C3=NCCN3)ccc2Cl)c1 [Compound 39, 2-(6-chloro-3′-methyl-[1,1′-biphenyl]-3-yl)-4,5-dihydro-1H-imidazole] | – | – | – |
| 31.3 | 48.9 | Cc1ccc(-c2cc(C3=NCCN3)ccc2Cl)cc1 [Compound 40, 2-(6-chloro-4′-methyl-[1,1′-biphenyl]-3-yl)-4,5-dihydro-1H-imidazole] | – | – | – |
| 27.7 | 44.3 | COc1ccccc1-c1cc(C2=NCCN2)ccc1Cl [Compound 41, 2-(6-chloro-2′-methoxy-[1,1′-biphenyl]-3-yl)-4,5-dihydro-1H-imidazole] | – | – | – |
| 23.4 | 49.8 | COc1cccc(-c2cc(C3=NCCN3)ccc2Cl)c1 [Compound 42, 2-(6-chloro-3′-methoxy-[1,1′-biphenyl]-3-yl)-4,5-dihydro-1H-imidazole] | – | – | – |
| 21.5 | 36.8 | COc1ccc(-c2cc(C3=NCCN3)ccc2Cl)cc1 [Compound 43, 2-(6-chloro-4′-methoxy-[1,1-biphenyl]-3-yl)-4,5-dihydro-1H-imidazole] | – | – | – |
| 9.8 | 48.4 | COc1cccc(OC)c1-c1cc(C2=NCCN2)ccc1Cl [Compound 44, 2-(6-chloro-2′,6′-dimethoxy-[1,1′-biphenyl]-3-yl)-4,5-dihydro-1H-imidazole] | – | – | – |

| SMILES | inhibition at 10 µM (5-HT7R [1]) [%] | inhibition at 10 µM (5-HT7R [2]) [%] | IC50 (5-HT7R [1]) [µM] | IC50 (5-HT7R [2]) [µM] | Kb (5-HT7R [3]) [µM] |
| --- | --- | --- | --- | --- | --- |
| c1ccc(-c2cccc(C3=NCCN3)c2)cc1 [Compound 23, 2-([1,1′-biphenyl]-3-yl)-4,5-dihydro-1H-imidazole] | 44.2 | 83.3 | 47.9 | 5.1 | 5.75 |
| COc1ccccc1-c1cccc(C2=NCCN2)c1 [Compound 30, 2-(2′-methoxy-[1,1′-biphenyl]-3-yl)-4,5-dihydro-1H-imidazole] | 40.6 | 94.1 | 39.8 | 2.58 | 1.26 |
